Like-named read-outs stand apart in the source and are kept apart here.
Experiments:
[1] = Example 2: fading of the magenta density at intermediate density portion; settings: formaldehyde 4.0 mmol, 2 weeks 60° C., 70% RH
Method: The following processing steps were carried out using the following processing solutions and a cine type automatic processor.
According to a sample, fading of the magenta density at the intermediate density portion and the occurrence of yellow stain at the minimum density portion were observed.

[2] = acid dissociation constant pKa of secondary amines of formula (II); settings: in water at room temperature (about 25° C.)
[3] = Example 1: evaluation of image storage stability (magenta fading), stabilizing solution; settings: for M Fading: 2 weeks 60° C. 20% RH
Method: In addition, the time for the stabilization step was changed by changing the length of the processing rack.
Thereafter, the sample was allowed to stand for 2 weeks under the conditions of 60° C. 20% RH and then the magenta density was measured again. Thus, magenta fading was evaluated by the reduced magenta density in the density stage that the magenta density after processing was 1.5. (M fading)

[4] = Example 4: image storage stability (magenta fading), color reversal material; settings: 80° C. for 3 days
Method: Sample 401 prepared was slit in 35 mm width, and after perforated in the same format as films on the market and applying thereto a uniform light exposure, the sample was processed according to the following processing steps using an hanging type automatic processor.
The image storage stability test was carried out under the condition of 80° C. for 3 days. Also, in a bright place, the presence of unevenness of the sample was visually observed.

[5] = Example 6: image storage stability (magenta fading), image stabilizer in conditioning bath
Method: The same processing steps as in Example 4 were carried out except for changing the conditioning solution and the stabilizing solution as follows.
In this case, the time for the final stabilizing step was one minute and the time for the conditioning step was changed as shown in Table E in the processing.
By using the same method as in Example 1, the image storage stability of the processed film obtained and the vapor pressure of formaldehyde were evaluated.

[6] = water
[7] = Example 3: turbidity of concentrated stabilizing replenisher after passage of time; format: physicochemical; parameters: key to Turbidity after Passage of Time: E: Neither turbidity nor precipitation.; G: Turbidity occurred very slightly.; M: Slightly precipitation formed at the bottom of the vessel in addition to turbidity.; B: Precipitation layer of 5 mm or more formed on the bottom of the vessel; settings: 40° C.
Method: One liter of the concentrated stabilizing replenisher shown below was prepared and filled in a 1.2 liter polyethylene bottle.
After allowing to stand the concentrated solution thus-prepared at 40° C. for 1 month or 6 months, the turbidity of the solution was visually observed.
In addition, the evaluation standards of the turbidity of the solution with the passage of time in Table C are as follows.

[8] = oxidation reduction potential of aminopolycarboxylic acid ferric complex salts (bleaching agents); format: physicochemical; settings: vs. NHE, pH = 6
From the text: Then, practical examples of the aminopolycarboxylic acid ferric complex salt in this invention are illustrated below together with their oxidation reduction potentials, but the bleaching agents for use in this invention are not limited to these compounds.
The oxidation reduction potential of the bleaching agent is defined as the oxidation reduction potential obtained by the method described in Transactions of the Faraday Society, Vol. 55, (1959), pages 1312-1313.

human body = settings: cited from earlier work
[9] = 5 mmol/l, stabilization time 10 sec.
[10] = 5 mmol/l, stabilization time 20 sec.
[11] = 5 mmol/l, stabilization time 60 sec.
[12] = 27 mmol/l, stabilization time 10 sec.
[13] = 27 mmol/l, stabilization time 20 sec.
[14] = 27 mmol/l, stabilization time 60 sec.
[15] = 3 mmol/l, time of conditioning bath 40 sec.
[16] = 3 mmol/l, time of conditioning bath 90 sec.
[17] = 3 mmol/l, time of conditioning bath 120 sec.
[18] = 13 mmol/l, time of conditioning bath 40 sec.
[19] = 13 mmol/l, time of conditioning bath 90 sec.
[20] = 13 mmol/l, time of conditioning bath 120 sec.

## c1nc[nH]n1 [Compound I-4]
[1]; formula (I) 4 mmol
  M-Fading: 0.16
[1]; formula (I) 16 mmol
  M-Fading: 0.17

## OCCNCCNCCO [II-17]
[2]
  pKa: 9.2

## C1N2CN3CN1CN(C2)C3 [Hexamethylenetetramine, reference compound]
[3]; [9]
  M Fading: 0.30
[3]; [10]
  M Fading: 0.31
[3]; [11]
  M Fading: 0.30
[3]; [12]
  M Fading: 0.28
[3]; [13]
  M Fading: 0.27
[3]; [14]
  M Fading: 0.28
[3]; Table A
  fading inhibition effect (in words): the fading inhibition effect is insufficient even when a large amount of the compound is used
[4]; 6 mmol/l
  M Fading: 0.29
[4]; 100 mmol/l
  M Fading: 0.10
[5]; [15]
  M Fading: 0.25
[5]; [16]
  M Fading: 0.22
[5]; [17]
  M Fading: 0.10
[5]; [18]
  M Fading: 0.09
[5]; [19]
  M Fading: 0.05
[5]; [20]
  M Fading: 0.02

## CC1CCNCC1 [II-24]
[2]
  pKa: 10.8

## c1cnn(CN2CCCCC2)c1 [Compound A-17]
[3]; [9]
  M Fading: 0.02
[3]; [10]
  M Fading: 0.01
[3]; [11]
  M Fading: 0.00

## C1COCCN1 [II-21]
[1]; formula (II) 4 mmol
  M-Fading: 0.04

## c1ncn(CN2CCOCC2)n1 [Compound A-26]
[3]; [9]
  M Fading: 0.03
[3]; [10]
  M Fading: 0.01
[3]; [11]
  M Fading: 0.01
[4]; 6 mmol/l
  M Fading: 0.00

## C=CCNCC=C [II-3]
[6]
  pKa: 9.3

## c1cnn(CN2CCN(Cn3cccn3)CC2)c1 [Compound A-22]
[3]; [9]
  M Fading: 0.01
[3]; [10]
  M Fading: 0.00
[3]; [11]
  M Fading: 0.00
[7]; 0.5 mol, 1 month
  Turbidity after Passage of Time: G
[7]; 0.5 mol, 6 months
  Turbidity after Passage of Time: M
[4]; 6 mmol/l
  M Fading: 0.00
[5]; [15]
  M Fading: 0.01
[5]; [16]
  M Fading: 0.00
[5]; [17]
  M Fading: 0.00

## CNCCCCO [II-9]
[2]
  pKa: 9.6

## CC1CNC(C)CN1 (stereo not drawn) [II-25]
[2]
  pKa: 9.7

## C1CNCCN1 [II-22]
[1]; formula (II) 2 mmol
  M-Fading: 0.03
[1]; formula (II) 4 mmol
  M-Fading: 0.02

## 1,3-Propylenediaminetetraacetic Acid Ferric Complex Salt [compound 7]
[8]
  Oxidation Reduction Potential: 250 mV

## CCOC(=O)N1CCNCC1 [II-26]
[2]
  pKa: 8.3

## CCNCCNCC [II-16]
[2]
  pKa: 10.2

## N-(2-Acetamido)iminodiacetic Acid Ferric Complex Salt [compound 1]
[8]
  Oxidation Reduction Potential: 180 mV

## CCCCNCCC#N [II-10]
[2]
  pKa: 8.3

## 1,4-Butylenediaminetetraacetic Acid Ferric Salt [compound 4]
[8]
  Oxidation Reduction Potential: 230 mV

## Iminodiacetic Acid Ferric Complex Salt [compound 3]
[8]
  Oxidation Reduction Potential: 210 mV

## CNCCNC [II-15]
[2]
  pKa: 9.9

## CC(C)NCCC#N [II-11]
[2]
  pKa: 8.0

## C=O [Formaldehyde, reference compound]
[3]; [9]
  M Fading: 0.20
[3]; [10]
  M Fading: 0.15
[3]; [11]
  M Fading: 0.08
[3]; [12]
  M Fading: 0.03
[3]; [13]
  M Fading: 0.00
[3]; [14]
  M Fading: 0.00
[1]; no formula (I) or (II) additive
  M-Fading: 0.15
[7]; 2.0 mol, 1 month
  Turbidity after Passage of Time: M
[7]; 2.0 mol, 6 months
  Turbidity after Passage of Time: M
[7]; concentrated stabilizing replenisher, 1 month or 6 months
  turbidity / precipitates on storage (in words): white floatings precipitates accumulated on the bottom of the vessel
[5]; [15]
  M Fading: 0.11
[5]; [16]
  M Fading: 0.00
[5]; [17]
  M Fading: 0.00
[5]; [18]
  M Fading: 0.03
[5]; [19]
  M Fading: 0.00
[5]; [20]
  M Fading: 0.00
Human body; Japan Association of Industrial Health
  allowable concentration in a working environment: ≤ 0.5 ppm
Human body; human body
  harm on inhalation (in words): harmful for the human body

## CCNCCCNCC [II-18]
[2]
  pKa: 10.6

## CNC [II-1]
[2]
  pKa: 10.9

## OCCN(CCO)Cn1cccn1 [Compound A-1]
[7]; 0.5 mol, 1 month
  Turbidity after Passage of Time: G
[7]; 0.5 mol, 6 months
  Turbidity after Passage of Time: M
[4]; 6 mmol/l
  M Fading: 0.04

## Cc1ccn(CN(CCO)CCO)n1 [Compound A-11]
[3]; [9]
  M Fading: 0.10
[3]; [10]
  M Fading: 0.05
[3]; [11]
  M Fading: 0.00
[5]; [15]
  M Fading: 0.01
[5]; [16]
  M Fading: 0.00
[5]; [17]
  M Fading: 0.00

## Glycol Ether Diaminetetraacetic Acid Ferric Complex Salt [compound 6]
[8]
  Oxidation Reduction Potential: 240 mV

## C1NCC2CNCC1C2 [II-27]
[2]
  pKa: 11.3

## CCN(CC)CCNC [II-14]
[2]
  pKa: 9.9

## Methyliminodiacetic Acid Ferric Complex Salt [compound 2]
[8]
  Oxidation Reduction Potential: 200 mV

## CCNCCO [II-6]
[2]
  pKa: 10.1

## c1cnn(CN2CCOCC2)c1 [Compound A-16]
[3]; [9]
  M Fading: 0.02
[3]; [10]
  M Fading: 0.00
[3]; [11]
  M Fading: 0.00
[4]; 6 mmol/l
  M Fading: 0.05

## CNCC(=O)N(C)C [II-12]
[2]
  pKa: 8.8

## OCCN1CCN(Cn2cccn2)CC1 [Compound A-32]
[4]; 6 mmol/l
  M Fading: 0.00
[5]; [15]
  M Fading: 0.01
[5]; [16]
  M Fading: 0.01
[5]; [17]
  M Fading: 0.01

## C1CCCNCC1 [II-23]
[2]
  pKa: 10.9

## OCN1CCN(Cn2cncn2)CC1 [Compound A-45]
[3]; [9]
  M Fading: 0.04
[3]; [10]
  M Fading: 0.01
[3]; [11]
  M Fading: 0.01
[5]; [15]
  M Fading: 0.01
[5]; [16]
  M Fading: 0.01
[5]; [17]
  M Fading: 0.01

## CNCCO [II-8]
[2]
  pKa: 9.8

## CCCCNC [Compound 11-5]
[2]
  pKa: 10.9

## CCNC[Si](C)(C)C [II-13]
[2]
  pKa: 11.1

## O=C1N(CO)CCN1CO [Dimethylolethyleneurea, reference compound]
[7]; 0.3 mol, 1 month
  Turbidity after Passage of Time: M
[7]; 0.3 mol, 6 months
  Turbidity after Passage of Time: B (Precipitation layer of 5 mm or more formed on the bottom of the vessel.)

## OCCN(CCO)Cn1cncn1 [Compound A-12]
[7]; 0.5 mol, 1 month
  Turbidity after Passage of Time: G
[7]; 0.5 mol, 6 months
  Turbidity after Passage of Time: M

## c1ncn(CN2CCN(Cn3cncn3)CC2)n1 [Compound A-23]
[3]; [9]
  M Fading: 0.00
[3]; [10]
  M Fading: 0.00
[3]; [11]
  M Fading: 0.00
[7]; 0.5 mol, 1 month
  Turbidity after Passage of Time: G
[7]; 0.5 mol, 6 months
  Turbidity after Passage of Time: M
[4]; 6 mmol/l
  M Fading: 0.00
[5]; [15]
  M Fading: 0.00
[5]; [16]
  M Fading: 0.00
[5]; [17]
  M Fading: 0.00

## Diethylenetriaminepentaacetic Acid Ferric Complex Salt [compound 9]
[8]
  Oxidation Reduction Potential: 80 mV

From patent publication US5270148A, “Processing solution for silver halide color photographic materials and method for processing the materials with the processing solution” (priority 1991, dated 1993)
